Results on 19 compounds are retold here after US6858638B2, “Substituted indazoles, compositions containing them, method of production and use” (Aventis Pharma S.A., priority 2002, dated 2005).

Holding throughout (type): biochemical
For assay [1], the target named is T1, human IGF1R cytoplasmic domain (Homo sapiens, UniProt P08069).
T1 construct: The human IGF1R cytoplasmic domain was cloned; made in house; host or cells: SF21 insect cells (baculovirus)
The assay can be described thus: IGF1R autophosphorylation inhibition, time resolved fluorescence (HTRF) assay. Conditions: 10 μM; read-out: IGF1R % inhib at 10 μM. In outline: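 GST-tagged human IGF1R cytoplasmic domain from SF21 cells incubated with compound in 50 mM Hepes pH 7.5, 5 mM MnCl2, 50 mM NaCl, […] ATP. Autophosphorylation detected by HTRF (Eu-K anti-phosphotyrosine, XL665 anti-GST) after EDTA/KF stop; percentage inhibition versus no-compound control.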
(In general: Time-resolved FRET reads energy transfer from a long-lived donor to a nearby acceptor.)

For a further assay, the target named is T2, human FAK (Homo sapiens, UniProt Q05397).
T2 construct: The complete cDNA of human FAK; made in house; host or cells: baculovirus expression system (vector pFastBac HTc)
Kind of assay: FAK autophosphorylation inhibition, time resolved fluorescence (HTRF) assay. Particulars: 10 μM (values without asterisk); read-out: FAK % inhib at 10 μM. In outline: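 His-tagged full-length human FAK from baculovirus (6.6 µg/ml) self-phosphorylates with 15 µM ATP in HEPES pH 7.2, MgCl2, vanadate, 1 h at 37 °C. HTRF detection (Eu-anti-phosphotyrosine / XL665-anti-His), 665/620 nm ratio; % inhibition vs untreated control, duplicate mean.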

For a further assay, the target named is T3, Aurora2 kinase (Homo sapiens, UniProt O14965).
T3 construct: A complete recombinant Aurora2 enzyme; His tag (N); made in house; host or cells: E. coli
T3 sequence (O14965 1-403): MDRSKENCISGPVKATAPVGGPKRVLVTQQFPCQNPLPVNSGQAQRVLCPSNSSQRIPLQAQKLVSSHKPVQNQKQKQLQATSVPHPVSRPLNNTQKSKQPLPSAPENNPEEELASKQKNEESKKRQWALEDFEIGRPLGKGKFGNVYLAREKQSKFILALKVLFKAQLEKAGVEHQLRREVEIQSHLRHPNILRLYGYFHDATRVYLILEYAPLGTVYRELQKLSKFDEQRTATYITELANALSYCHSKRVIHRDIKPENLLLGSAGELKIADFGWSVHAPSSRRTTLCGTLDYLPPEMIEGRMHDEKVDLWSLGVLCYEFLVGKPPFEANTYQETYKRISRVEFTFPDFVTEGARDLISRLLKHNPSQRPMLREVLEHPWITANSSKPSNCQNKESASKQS
Kind of assay: Aurora2 kinase radioactivity scintillation assay using nickel chelate (NuMA substrate). Conditions: 10 μM; read-out: Aurora2 % inhib at 10 μM. In outline: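 His-tagged full-length Aurora2 (0.02 μM, E. coli) phosphorylating His-tagged NuMA C-terminal fragment (0.5 μM) with 1 μM ATP plus [33P]-ATP, 30 min at 37 °C, pH 7.5 Tris buffer with MgCl2. Nickel-chelate scintillation read; percent inhibition versus no-compound control.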

A further assay deals with T4, human KDR enzyme (Homo sapiens, UniProt P35968).
T4 construct: The cytoplasmic domain of the human KDR enzyme; GST; made in house; host or cells: SF21 insect cells (baculovirus)
Kind of assay: KDR substrate (PLCγ) phosphorylation, scintillation assay. Conditions: 10 μM; read-out: KDR % inhib at 10 μM. In outline: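 GST-fused human KDR cytoplasmic domain from SF21 cells (about 60% pure, 100 ng) phosphorylated 2 μg of GST-PLCγ SH2-SH3 fragment. The trigger solution held γ33P-ATP with 2 μM cold ATP, in MOPS buffer pH 7.2 with Mg2+, Mn2+, vanadate and NaF. Reactions ran 1 h at 37 °C, were stopped with EDTA and counted by scintillation; results are % inhibition versus the no-compound control.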

T1 sequence (P08069 960-1367 limits assumed): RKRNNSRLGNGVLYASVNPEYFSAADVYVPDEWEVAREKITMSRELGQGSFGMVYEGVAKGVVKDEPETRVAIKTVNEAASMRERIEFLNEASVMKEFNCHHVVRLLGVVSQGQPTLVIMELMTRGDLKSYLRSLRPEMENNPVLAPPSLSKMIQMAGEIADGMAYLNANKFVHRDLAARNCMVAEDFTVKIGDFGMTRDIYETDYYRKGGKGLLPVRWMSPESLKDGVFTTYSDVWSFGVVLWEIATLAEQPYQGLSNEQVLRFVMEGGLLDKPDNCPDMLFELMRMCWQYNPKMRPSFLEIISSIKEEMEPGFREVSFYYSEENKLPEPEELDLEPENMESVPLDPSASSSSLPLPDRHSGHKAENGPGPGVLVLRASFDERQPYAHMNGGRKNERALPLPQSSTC
T2 sequence (Q05397 whole entry): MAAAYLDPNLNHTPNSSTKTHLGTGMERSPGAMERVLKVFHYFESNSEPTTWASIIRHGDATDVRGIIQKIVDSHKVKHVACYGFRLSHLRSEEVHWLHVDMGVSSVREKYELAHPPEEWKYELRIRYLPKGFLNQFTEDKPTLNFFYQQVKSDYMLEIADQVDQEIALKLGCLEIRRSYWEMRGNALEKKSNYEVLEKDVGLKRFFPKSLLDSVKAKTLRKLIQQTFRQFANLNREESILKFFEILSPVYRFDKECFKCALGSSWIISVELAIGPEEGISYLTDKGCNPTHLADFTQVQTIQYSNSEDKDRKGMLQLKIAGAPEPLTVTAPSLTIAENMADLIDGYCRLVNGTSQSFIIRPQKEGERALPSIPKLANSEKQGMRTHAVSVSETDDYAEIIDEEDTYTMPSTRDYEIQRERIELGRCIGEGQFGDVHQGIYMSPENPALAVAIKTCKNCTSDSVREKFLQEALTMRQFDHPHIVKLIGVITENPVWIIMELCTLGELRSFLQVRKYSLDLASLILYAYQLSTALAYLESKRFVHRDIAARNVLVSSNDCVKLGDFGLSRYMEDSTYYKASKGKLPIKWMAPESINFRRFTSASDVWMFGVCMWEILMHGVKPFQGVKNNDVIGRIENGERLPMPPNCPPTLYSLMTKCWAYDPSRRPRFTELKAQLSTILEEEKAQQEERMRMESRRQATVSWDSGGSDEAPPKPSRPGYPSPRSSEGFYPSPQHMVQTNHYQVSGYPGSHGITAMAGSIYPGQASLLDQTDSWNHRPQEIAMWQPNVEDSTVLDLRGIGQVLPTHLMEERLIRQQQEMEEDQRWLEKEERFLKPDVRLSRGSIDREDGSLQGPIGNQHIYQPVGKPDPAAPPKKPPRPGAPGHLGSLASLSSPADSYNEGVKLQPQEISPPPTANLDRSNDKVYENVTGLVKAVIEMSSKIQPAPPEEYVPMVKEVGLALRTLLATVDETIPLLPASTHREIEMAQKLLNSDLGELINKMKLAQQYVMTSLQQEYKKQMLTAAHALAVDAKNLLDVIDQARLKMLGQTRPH
T4 sequence (P35968 786-1356 limits assumed): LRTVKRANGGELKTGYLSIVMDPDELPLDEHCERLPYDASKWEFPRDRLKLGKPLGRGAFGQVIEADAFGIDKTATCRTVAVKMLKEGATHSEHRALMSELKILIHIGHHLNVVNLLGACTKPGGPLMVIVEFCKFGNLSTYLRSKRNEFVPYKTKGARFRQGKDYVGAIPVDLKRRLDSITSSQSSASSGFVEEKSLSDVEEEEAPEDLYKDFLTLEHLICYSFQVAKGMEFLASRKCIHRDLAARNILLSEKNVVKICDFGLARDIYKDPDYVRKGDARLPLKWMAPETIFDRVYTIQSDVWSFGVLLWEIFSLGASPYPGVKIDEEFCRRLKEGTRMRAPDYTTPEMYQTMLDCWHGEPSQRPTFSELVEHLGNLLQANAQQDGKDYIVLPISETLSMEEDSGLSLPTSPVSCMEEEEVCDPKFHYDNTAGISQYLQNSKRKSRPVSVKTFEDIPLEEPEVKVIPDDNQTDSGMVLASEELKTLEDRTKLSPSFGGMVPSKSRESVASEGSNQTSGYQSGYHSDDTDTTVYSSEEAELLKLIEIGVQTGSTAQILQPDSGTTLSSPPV

On to `CS(=O)(=O)c1ccccc1S(=O)(=O)Nc1ccc2[nH]nc(-c3ccc(Cl)cc3Cl)c2c1` [Example 163, N-[3-(2,4-Dichlorophenyl)-1H-indazol-5-yl]-2-methanesulfonyl-benzenesulfonamide], for which the inhibition at 10 µM in assay [1] is 23%; on human FAK it was 61%; at Aurora2 kinase it was 64%; at human KDR enzyme, 61%.
`CS(=O)(=O)c1ccccc1S(=O)(=O)Nc1ccc2[nH]nc(-c3ccc(CO)cc3)c2c1` [Example 191, N-[3-(4-Hydroxymethylphenyl)-1H-indazol-5-yl]-2-methanesulfonyl-benzenesulfonamide]: the inhibition at 10 µM amounted to 73% in assay [1], 96% on human FAK, 88% at Aurora2 kinase and 45% on human KDR enzyme.
As for `CS(=O)(=O)c1ccccc1S(=O)(=O)Nc1ccc2[nH]nc(-c3cc(Cl)ccc3Cl)c2c1` [Example 225, N-[3-(2,5-Dichlorophenyl)-1H-indazol-5-yl]-2-methanesulfonyl-benzenesulfonamide], the inhibition at 10 µM in assay [1] is 27%; at human FAK, 51%; at Aurora2 kinase, 49%; on human KDR enzyme, 12%.
Take `COc1ccc(-c2n[nH]c3ccc(NS(=O)(=O)c4ccccc4S(C)(=O)=O)cc23)c(OC)c1OC` [Example 214, 2-Methanesulfonyl-N-[3-(2,3,4-trimethoxyphenyl)-1H-indazol-5-yl]-benzenesulfonamide]: the inhibition at 10 µM in assay [1] was 21%; at human FAK, 60%; at Aurora2 kinase, 67%; at human KDR enzyme, 56%.
For `CS(=O)(=O)c1ccccc1S(=O)(=O)Nc1ccc2[nH]nc(-c3cccc(Cl)c3)c2c1` [Example 177, N-[3-(3-Chlorophenyl)-1H-indazol-5-yl]-2-methanesulfonyl-benzenesulfonamide] the same measures were 80%, 97%, 95% and 71%.
Turning to `CS(=O)(=O)c1ccccc1S(=O)(=O)Nc1ccc2[nH]nc(/C=C/c3ccccc3)c2c1` [Example 78, 2-Methylsulfonyl-N-[3-((E)-styryl)-1H-indazol-5-yl]benzenesulfonamide], the inhibition at 10 µM turned out to be 96% in assay [1], 94% at human FAK, 100% on Aurora2 kinase and 97% at human KDR enzyme.
For `Cc1cc(C)c(S(=O)(=O)Nc2ccc3[nH]nc(-c4ccccc4)c3c2)c(C)c1` [Example 115, 2,4,6-Trimethyl-N-(3-phenyl-1H-indazol-5-yl)-benzenesulfonamide], in that order: 79%, 31%, 70% and 78%.
In the case of `CC(C)c1cc(C(C)C)c(S(=O)(=O)Nc2ccc3[nH]nc(-c4ccccc4)c3c2)c(C(C)C)c1` [Example 114, 2,4,6-Triisopropyl-N-(3-phenyl-1H-indazol-5-yl)-benzenesulfonamide], the inhibition at 10 µM in assay [1] turned out to be 50%; on human FAK, 48%; on Aurora2 kinase, 98%; at human KDR enzyme, 90%.
For `CS(=O)(=O)c1ccccc1S(=O)(=O)Nc1ccc2[nH]nc(-c3ccc(C#N)cc3)c2c1` [Example 216, N-[3-(4-Cyanophenyl)-1H-indazol-5-yl]-2-methanesulfonyl-benzenesulfonamide], in that order: 86%, 96%, 91% and 32%.
For `CS(=O)(=O)c1ccccc1S(=O)(=O)Nc1ccc2[nH]nc(-c3cccc(OC(F)(F)F)c3)c2c1` [Example 219, N-[3-(3-Trifluoromethoxy-phenyl)-1H-indazol-5-yl]-2-methanesulfonyl-benzenesulfonamide], in that order: 60%, 87%, 86% and 31%.
For `CS(=O)(=O)c1ccccc1S(=O)(=O)Nc1ccc2[nH]nc(-c3ccc(O)cc3)c2c1` [Example 202, N-[3-(4-Hydroxyphenyl)-1H-indazol-5-yl]-2-methanesulfonyl-benzenesulfonamide] the same measures were 83%, 97%, 96% and 79%.
As to `CS(=O)(=O)c1ccccc1S(=O)(=O)Nc1ccc2[nH]nc(-c3ccc4[nH]ccc4c3)c2c1` [Example 104, N-[3-(1H-indol-5-yl)-1H-indazol-5-yl]-2-methylsulfonylbenzenesulfonamide], the inhibition at 10 µM amounted to 73% in assay [1], 85% on human FAK, 97% at Aurora2 kinase and 75% at human KDR enzyme.
For `CS(=O)(=O)c1ccccc1S(=O)(=O)Nc1ccc2[nH]nc(-c3ccc(C(=O)O)cc3)c2c1` [Example 69, 4-[5-(2-Methylsulfonylbenzenesulfonamino)-1H-indazol-3-yl]benzoic acid], in that order: 61%, 98%, 99% and 73%.
In the case of `CS(=O)(=O)c1ccccc1S(=O)(=O)Nc1ccc2[nH]nc(-c3ccc(Oc4ccccc4)cc3)c2c1` [Example 171, 2-Methanesulfonyl-N-[3-(4-phenoxyphenyl)-1H-indazol-5-yl]benzenesulfonamide], the inhibition at 10 µM in assay [1] was 20%; on human FAK, 25%; at Aurora2 kinase, 59%; at human KDR enzyme it was 40%.
For `CS(=O)(=O)c1ccccc1S(=O)(=O)Nc1ccc2[nH]nc(-c3ccc(OC(F)(F)F)cc3)c2c1` [Example 206, N-[3-(4-Trifluoromethoxy-phenyl)-1H-indazol-5-yl]-2-methanesulfonyl-benzenesulfonamide], in that order: 61%, 58%, 85% and 48%.
On to `CCOc1cccc(-c2n[nH]c3ccc(NS(=O)(=O)c4ccccc4S(C)(=O)=O)cc23)c1` [Example 186, N-[3-(3-Ethoxyphenyl)-1H-indazol-5-yl]-2-methanesulfonyl-benzenesulfonamide], for which the inhibition at 10 µM in assay [1] was 60%; on human FAK, 94%; on Aurora2 kinase, 90%; at human KDR enzyme, 35%.
In the case of `CS(=O)(=O)c1ccccc1S(=O)(=O)Nc1ccc2[nH]nc(-c3ccc(F)c(F)c3)c2c1` [Example 192, N-[3-(3,4-Difluorophenyl)-1H-indazol-5-yl]-2-methanesulfonyl-benzenesulfonamide], the inhibition at 10 µM in assay [1] was found to be 72%; on human FAK, 90%; at Aurora2 kinase it was 89%; on human KDR enzyme, 47%.
For `CS(=O)(=O)c1ccccc1S(=O)(=O)Nc1ccc2[nH]nc(NC(=O)c3ccccc3)c2c1` [Example 45, N-[5-(2-Methylsulfonylbenzenesulfonylamino)-1H-indazol-3-yl]benzamide] the same measures were 95%, 100%, 95% and 55%.
For `Cc1ccc(-c2n[nH]c3ccc(NS(=O)(=O)c4ccccc4S(C)(=O)=O)cc23)cc1N` [Example 204, N-[3-(3-Amino-4-methyl-phenyl)-1H-indazol-5-yl]-2-methanesulfonyl-benzenesulfonamide] the same measures were 78%, 97%, 95% and 67%.
